Laboratory results as given in PMC6387623 (Proteins, 2018).

Molecular target: RGS4 (single-cysteine RGS4 C95) (Rattus norvegicus, UniProt P49799, C71A/C132A/C148A/C183A/C197A/C204A)
Test: Flow cytometry protein interaction assay
Type: binding

Sequence of RGS4 (single-cysteine RGS4 C95) (P49799 52-205 C71A/C132A/C148A/C183A/C197A/C204A): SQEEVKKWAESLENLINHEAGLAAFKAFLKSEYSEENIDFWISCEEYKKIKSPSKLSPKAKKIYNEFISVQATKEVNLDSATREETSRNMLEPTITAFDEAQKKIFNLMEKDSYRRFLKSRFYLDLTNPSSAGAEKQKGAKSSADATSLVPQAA

## Cc1ccc(-n2sc(=O)n(Cc3ccc(F)cc3)c2=O)cc1 [compound 1, CCG-50014]
  IC50: ~4.5 µM
